Tests used:
[1] = target: T1, Human Tryptophan 2,3-dioxygenase (TDO) (Homo sapiens, UniProt P48775); assay: Human TDO enzymatic assay (kynurenine level); type: biochemical; conditions: 1 nM TDO, 350 μM L-Trp; geometric mean; read-out: TDO GMean: IC50 (μM) (Biochemical Assay)
T1 construct: His tag (N); made in house; host or cells: E. coli
Outline: (§1)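 N-His human IDO (6 nM, 10 μM L-Trp, 5 μM methylene blue, 20 min) or TDO (1 nM, 350 μM L-Trp, 0.4 μM methylene blue, 70 min) run at room temp in pH 6.5 phosphate with ascorbate, catalase, Tween 20. TCA stop, 30 min 50 °C converts N-formylkynurenine to kynurenine; IC50 by nonlinear regression.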

[2] = target: T2, Human Indoleamine 2,3-dioxygenase (IDO) (Homo sapiens, UniProt P14902); assay: Human IDO enzymatic assay (kynurenine level); type: biochemical; conditions: 6 nM IDO, 10 μM L-Trp; geometric mean; read-out: IDO1 GMean: IC50 (μM) (Biochemical Assay)
T2 construct: His tag (N); made in house; host or cells: E. coli
T2 sequence (P14902 whole entry): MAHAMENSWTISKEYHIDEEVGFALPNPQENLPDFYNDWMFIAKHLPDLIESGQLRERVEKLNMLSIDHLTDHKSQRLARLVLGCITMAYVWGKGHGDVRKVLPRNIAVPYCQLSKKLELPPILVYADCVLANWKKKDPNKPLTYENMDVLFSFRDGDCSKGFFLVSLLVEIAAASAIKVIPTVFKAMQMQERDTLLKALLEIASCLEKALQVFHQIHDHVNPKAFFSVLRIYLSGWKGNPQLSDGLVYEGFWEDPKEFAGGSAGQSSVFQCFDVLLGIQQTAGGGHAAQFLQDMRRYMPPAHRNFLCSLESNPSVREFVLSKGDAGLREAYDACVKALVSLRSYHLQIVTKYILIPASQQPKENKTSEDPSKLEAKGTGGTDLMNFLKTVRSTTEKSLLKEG
Outline: as §1

T1 sequence (P48775 whole entry): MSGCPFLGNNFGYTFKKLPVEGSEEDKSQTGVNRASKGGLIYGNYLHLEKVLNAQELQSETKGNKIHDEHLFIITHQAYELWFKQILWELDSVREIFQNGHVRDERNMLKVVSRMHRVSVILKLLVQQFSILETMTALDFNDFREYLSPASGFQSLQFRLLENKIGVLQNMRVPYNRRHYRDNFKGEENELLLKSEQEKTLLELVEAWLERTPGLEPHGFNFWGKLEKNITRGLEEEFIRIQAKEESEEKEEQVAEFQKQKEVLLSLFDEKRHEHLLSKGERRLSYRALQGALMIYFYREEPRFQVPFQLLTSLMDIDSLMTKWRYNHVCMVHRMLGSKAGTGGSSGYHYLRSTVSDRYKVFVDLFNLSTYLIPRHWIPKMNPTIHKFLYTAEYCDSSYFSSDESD

| Compound | IC50 [1] | IC50 [2] |
| --- | --- | --- |
| O=C(c1ccc(C(F)(F)F)nc1)N1CCC(C(F)(F)[C@H](O)c2c3c(cc4cn[nH]c24)CC3)CC1 [Compound P-0620, (R)-(4-(2-(5,6-dihydro-1H-cyclobuta[f]indazol-7-yl)-1,1-difluoro-2-hydroxyethyl)piperidin-1-yl)(6-(trifluoromethyl)pyridin-3-yl)methanone] | 0.0001 to 10 µM | 0.0001 to 10 µM |
| O=C(Nc1ccc(F)cc1)N1CCC(C(F)(F)[C@H](O)c2c3c(cc4cn[nH]c24)CC3)CC1 [Compound P-0637, (R)-4-(2-(5,6-dihydro-1H-cyclobuta[f]indazol-7-yl)-1,1-difluoro-2-hydroxyethyl)-N-(4-fluorophenyl) piperidine-1-carboxamide] | 0.0001 to 10 µM | 0.0001 to 10 µM |
| N#Cc1ccc(NC(=O)N2CCC(C(F)(F)[C@H](O)c3c4c(cc5cn[nH]c35)CC4)CC2)cc1 [Compound P-0638, (R)-N-(4-cyanophenyl)-4-(2-(5,6-dihydro-1H-cyclobuta[f]indazol-7-yl)-1,1-difluoro-2-hydroxyethyl) piperidine-1-carboxamide] | 0.0001 to 10 µM | 0.0001 to 10 µM |
| CC1(C(O)c2cc(Cl)c(F)c3cn[nH]c23)CC(F)(F)C1 (stereo not drawn) [Compound P-0650, (5-chloro-4-fluoro-1H-indazol-7-yl)(3,3-difluoro-1-methylcyclobutyl)methanol] | 0.0001 to 10 µM | 0.0001 to 10 µM |
| O=C(Cc1ccnc(Cl)c1)N1CCC(C(F)(F)C(O)c2cc(Cl)cc3[nH]ncc23)CC1 (stereo not drawn) [Compound P-0657, 1-(4-(2-(6-chloro-1H-indazol-4-yl)-1,1-difluoro-2-hydroxyethyl)piperidin-1-yl)-2-(2-chloropyridin-4-yl)ethan-1-one] | 0.0001 to 10 µM | 0.0001 to 10 µM |
| CC(C)(C1CCN(C(=O)Nc2ccc(F)cn2)CC1)[C@H](O)c1cc(Cl)cc2cn[nH]c12 [Compound P-0658, (S)-4-(1-(5-chloro-1H-indazol-7-yl)-1-hydroxy-2-methylpropan-2-yl)-N-(5-fluoropyridin-2-yl)piperidine-1-carboxamide] | 0.0001 to 10 µM | 0.0001 to 10 µM |
| CC(C)(C1CCN(C(=O)C2(F)CC2)CC1)[C@H](O)c1cc(Cl)cc2cn[nH]c12 [Compound P-0659, (S)-(4-(1-(5-chloro-1H-indazol-7-yl)-1-hydroxy-2-methylpropan-2-yl)piperidin-1-yl)(1-fluorocyclopropyl) methanone] | 0.0001 to 10 µM | 0.0001 to 10 µM |
| CC(C)(C1CCN(C(=O)Nc2ccc(F)cc2)CC1)C(O)c1cc(Cl)cc2[nH]ncc12 (stereo not drawn) [Compound P-0660, 4-(1-(6-chloro-1H-indazol-4-yl)-1-hydroxy-2-methylpropan-2-yl)-N-(4-fluorophenyl) piperidine-1-carboxamide] | 0.0001 to 10 µM | 0.0001 to 10 µM |
| CC(C)(C1CCN(C(=O)C2(F)CC2)CC1)C(O)c1cc(Cl)cc2[nH]ncc12 (stereo not drawn) [Compound P-0661, (4-(1-(6-chloro-1H-indazol-4-yl)-1-hydroxy-2-methylpropan-2-yl)piperidin-1-yl)(1-fluorocyclopropyl) methanone] | 0.0001 to 10 µM | 0.0001 to 10 µM |
| CN(C)C(=O)N1CCC(C(C)(C)[C@H](O)c2cc(Cl)cc3cn[nH]c23)CC1 [Compound P-0662, (S)-4-(1-(5-chloro-1H-indazol-7-yl)-1-hydroxy-2-methylpropan-2-yl)-N,N-dimethylpiperidine-1-carboxamide] | 0.0001 to 10 µM | 0.0001 to 10 µM |
| CC(C)(C1CCN(C(=O)C(F)(F)F)CC1)[C@H](O)c1cc(Cl)cc2cn[nH]c12 [Compound P-0663, (S)-1-(4-(1-(5-chloro-1H-indazol-7-yl)-1-hydroxy-2-methylpropan-2-yl)piperidin-1-yl)-2,2,2-trifluoroethan-1-one] | 0.0001 to 10 µM | 0.0001 to 10 µM |
| CC(C)(C1CCN(C(=O)NCCCO)CC1)[C@H](O)c1cc(Cl)cc2cn[nH]c12 [Compound P-0665, (S)-4-(1-(5-chloro-1H-indazol-7-yl)-1-hydroxy-2-methylpropan-2-yl)-N-(3-hydroxypropyl) piperidine-1-carboxamide] | 0.0001 to 10 µM | 0.0001 to 10 µM |
| CC(C)(O)CNC(=O)N1CCC(C(C)(C)[C@H](O)c2cc(Cl)cc3cn[nH]c23)CC1 [Compound P-0666, (S)-4-(1-(5-chloro-1H-indazol-7-yl)-1-hydroxy-2-methylpropan-2-yl)-N-(2-hydroxy-methylpropyl) piperidine-1-carboxamide] | 0.0001 to 10 µM | 0.0001 to 10 µM |

Results, then the compound that gave them:

| IC50 [1] | IC50 [2] | Compound |
| --- | --- | --- |
| 0.0001 to 10 µM | 0.0001 to 10 µM | O=C(C1CCOCC1)N1CCC(C(F)(F)[C@H](O)c2c3c(cc4cn[nH]c24)CC3)CC1 [Compound P-0618, (R)-(4-(2-(5,6-dihydro-1H-cyclobuta[f]indazol-7-yl)-1,1-difluoro-2-hydroxyethyl)piperidin-1-yl)(tetrahydro-2H-pyran-4-yl)methanone] |
| 0.0001 to 10 µM | 0.0001 to 10 µM | O=C(c1cccnc1)N1CCC(C(F)(F)[C@H](O)c2c3c(cc4cn[nH]c24)CC3)CC1 [Compound P-0619, (R)-(4-(2-(5,6-dihydro-1H-cyclobuta[f]indazol-7-yl)-1,1-difluoro-2-hydroxyethyl)piperidin-1-yl) (pyridin-3-yl)methanone] |
| 0.0001 to 10 µM | 0.0001 to 10 µM | O=C(c1ccc(Cl)cn1)N1CCC(C(F)(F)[C@H](O)c2c3c(cc4cn[nH]c24)CC3)CC1 [Compound P-0621, (R)-(5-chloropyridin-2-yl)(4-(2-(5,6-dihydro-1H-cyclobuta[f]indazol-7-yl)-1,1-difluoro-hydroxyethyl)piperidin-1-yl) methanone] |
| 0.0001 to 10 µM | 0.0001 to 10 µM | O=C(CN1CCOCC1)N1CCC(C(F)(F)[C@H](O)c2c3c(cc4cn[nH]c24)CC3)CC1 [Compound P-0622, (R)-1-(4-(2-(5,6-dihydro-1H-cyclobuta[f]indazol-7-yl)-1,1-difluoro-2-hydroxyethyl)piperidin-1-yl)-2-morpholinoethan-1-one] |
| 0.0001 to 10 µM | 0.0001 to 10 µM | O=C(CN1CCS(=O)(=O)CC1)N1CCC(C(F)(F)[C@H](O)c2c3c(cc4cn[nH]c24)CC3)CC1 [Compound P-0623, (R)-1-(4-(2-(5,6-dihydro-1H-cyclobuta[f]indazol-7-yl)-1,1-difluoro-2-hydroxyethyl)piperidin-1-yl)-2-(1,1-dioxidothiomorpholino) ethan-1-one] |
| 0.0001 to 10 µM | 0.0001 to 10 µM | O=C(CC1CCS(=O)(=O)CC1)N1CCC(C(F)(F)[C@H](O)c2c3c(cc4cn[nH]c24)CC3)CC1 [Compound P-0624, (R)-1-(4-(2-(5,6-dihydro-1H-cyclobuta[f]indazol-7-yl)-1,1-difluoro-2-hydroxyethyl)piperidin-1-yl)-2-(1,1-dioxidotetrahydro-2H-thiopyran-4-yl)ethan-1-one] |
| 0.0001 to 10 µM | 0.0001 to 10 µM | O=C(Cc1ccc(F)c(Cl)c1)N1CCC(C(F)(F)[C@H](O)c2c3c(cc4cn[nH]c24)CC3)CC1 [Compound P-0625, (R)-2-(3-chloro-4-fluorophenyl)-1-(4-(2-(5,6-dihydro-1H-cyclobuta[f]indazol 7-yl)-1,1-difluoro-2-hydroxyethyl)piperidin-1-yl) ethan-1-one] |
| 0.0001 to 10 µM | 0.0001 to 10 µM | O=C(Cc1ccc(Cl)c(F)c1)N1CCC(C(F)(F)[C@H](O)c2c3c(cc4cn[nH]c24)CC3)CC1 [Compound P-0626, (R)-2-(4-chloro-3-fluorophenyl)-1-(4-(2-(5,6-dihydro-1H-cyclobuta[f]indazol-7-yl)-1,1-difluoro-2-hydroxyethyl)piperidin-1-yl) ethan-1-one] |
| 0.0001 to 10 µM | 0.0001 to 10 µM | CCNC(=O)N1CCC(C(F)(F)[C@H](O)c2c3c(cc4cn[nH]c24)CC3)CC1 [Compound P-0627, (R)-4-(2-(5,6-dihydro-1H-cyclobuta[f]indazol-7-yl)-1,1-difluoro-2-hydroxyethyl)-N-ethylpiperidine-1-carboxamide] |
| 0.0001 to 10 µM | 0.0001 to 10 µM | O=C(NC1CC1)N1CCC(C(F)(F)[C@H](O)c2c3c(cc4cn[nH]c24)CC3)CC1 [Compound P-0628, (R)-N-cyclopropyl-4-(2-(5,6-dihydro-1H-cyclobuta[f]indazol-7-yl)-1,1-difluoro-2-hydroxyethyl) piperidine-1-carboxamide] |
| 0.0001 to 10 µM | 0.0001 to 10 µM | O=C(NC1CCC1)N1CCC(C(F)(F)[C@H](O)c2c3c(cc4cn[nH]c24)CC3)CC1 [Compound P-0629, (R)-N-cyclobutyl-4-(2-(5,6-dihydro-1H-cyclobuta[f]indazol-7-yl)-1,1-difluoro-2-hydroxyethyl) piperidine-1-carboxamide] |
| 0.0001 to 10 µM | 0.0001 to 10 µM | COCCNC(=O)N1CCC(C(F)(F)[C@H](O)c2c3c(cc4cn[nH]c24)CC3)CC1 [Compound P-0630, (R)-4-(2-(5,6-dihydro-1H-cyclobuta[f]indazol-7-yl)-1,1-difluoro-2-hydroxyethyl)-N-(2-methoxyethyl) piperidine-1-carboxamide] |
| 0.0001 to 10 µM | 0.0001 to 10 µM | O=C(NCC1CC1)N1CCC(C(F)(F)[C@H](O)c2c3c(cc4cn[nH]c24)CC3)CC1 [Compound P-0631, (R)-N-(cyclopropylmethyl)-4-(2-(5,6-dihydro-1H-cyclobuta[f]indazol-7-yl)-1,1-difluoro-2-hydroxyethyl) piperidine-1-carboxamide] |
| 0.0001 to 10 µM | 0.0001 to 10 µM | O=C(Nc1cccnc1)N1CCC(C(F)(F)[C@H](O)c2c3c(cc4cn[nH]c24)CC3)CC1 [Compound P-0636, (R)-4-(2-(5,6-dihydro-1H-cyclobuta[f]indazol-7-yl)-1,1-difluoro-2-hydroxyethyl)-N-(pyridin-3-yl)piperidine-1-carboxamide] |

Source: patent US10508085B2, “Compounds and methods for IDO and TDO modulation, and indications therefor” (Plexxikon Inc., priority 2016, dated 2019)
